Results as given in the METLIN SMRT retention time set (Domingo-Almenara et al. 2019).

Assay: gradient 5% acetonitrile 3 min, to 50% in 2 min, to 85% in 15 min, held 3 min, 100 µL/min
Conditions: column: Zorbax Extend-C18 2.1 x 50 mm; eluents: water / acetonitrile, 0.1% formic acid
In short: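 Pure standards were analyzed in mixtures of ~100 molecules using HPLC coupled to a quadrupole time-of-flight mass spectrometer, in both positive and negative ionization mode. Separation used a Zorbax Extend-C18 column (2.1 × 50 mm, 1.8 μm) at 100 μL/min, with water and acetonitrile each containing 0.1% formic acid. Dead and dwell volumes were 40 μL and 900 μL, and data were collected over 3 months. Retention time was read from computationally picked adduct peaks, each inspected manually.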

## O=C(Nc1c(F)cccc1F)N1CCc2nc(-c3ccccc3)ncc2C1
  RP-LC retention time: 811 s

## O=C(CSc1nc(N2CCCCC2)nc2ccccc12)Nc1ccc2c(c1)OCCO2
  RP-LC retention time: 690 s

## Cc1cc2c(cc1S(=O)(=O)N1CCCC1C(=O)NC1CCCCCCC1)OCC(=O)N2 (stereo not drawn)
  RP-LC retention time: 834 s

## O=C(c1ccc[nH]1)N1CCC2(CC1)NC(=O)N(Cc1cccc(Cl)c1)C2=O
  RP-LC retention time: 769 s

## Cc1nc2ccccn2c(=O)c1NC(=O)Nc1cccs1
  RP-LC retention time: 566 s

## O=C(NCCCc1ccccc1)C1CCN(S(=O)(=O)c2ccc(-c3noc(C4CC4)n3)cc2)CC1
  RP-LC retention time: 1060 s

## COc1ccc(OC)c(NC(=O)N2c3ccccc3CC2c2nc(C3CC3)no2)c1 (stereo not drawn)
  RP-LC retention time: 1110 s

## Cc1cccc(N2CCN(S(=O)(=O)c3ccc4c(c3)CCCC(=O)N4)CC2C)c1 (stereo not drawn)
  RP-LC retention time: 881 s

## Cc1ccc(CN2CCN(C3CCN(S(=O)(=O)c4cc(F)ccc4C)CC3)C(=O)C2=O)cc1
  RP-LC retention time: 920 s

## COc1ccc(C2(C(=O)NCc3ccc4c(c3)ncn4C(C)C)CC2)cc1
  RP-LC retention time: 678 s

## Cc1cc(C)cc(NS(=O)(=O)c2cc(-c3nc(C)cs3)sc2C)c1
  RP-LC retention time: 1080 s

## CCOC(=O)C1CCN(C(=O)Cc2c(C(=O)O)c(C)cn2CC)CC1
  RP-LC retention time: 715 s

## NC(=O)COc1cc(-c2ccccc2)nc2ccc(NC(=O)C3CC3)cc12
  RP-LC retention time: 610 s

## CC(C)NC(=O)C1CCCN(C(=O)Nc2ccc(NC(=O)Nc3ccccc3)cc2)C1 (stereo not drawn)
  RP-LC retention time: 720 s

## COc1cccc(CCc2nc(-c3ccc4oc(C)nc4c3)no2)c1
  RP-LC retention time: 1030 s

## COc1ccc2[nH]c3c(c2c1)CCN1C(=O)N(CCc2ccc(OC)c(OC)c2)C(=O)C31C (stereo not drawn)
  RP-LC retention time: 888 s

## CCOc1ccc(-c2cc3c(=O)n(Cc4nc(-c5cccc(C(F)(F)F)c5)no4)ncn3n2)cc1
  RP-LC retention time: 1250 s

## CCN1CCCn2cc(S(=O)(=O)NCc3ccccc3)cc2C1=O
  RP-LC retention time: 711 s

## CCOc1ccc(N2C=C(C(=O)OC)S(=O)(=O)c3cc(F)ccc32)cc1
  RP-LC retention time: 924 s

## CC1CCCN(c2ccn3c(=O)n(CC(=O)NCc4ccc(F)cc4F)nc3n2)C1 (stereo not drawn)
  RP-LC retention time: 772 s

## CCS(=O)(=O)N1CC(F)(F)C[C@H]1c1nnc(-c2ccccc2)o1
  RP-LC retention time: 824 s

## O=C(c1ccc2ccccc2n1)N1CCN(C(=O)c2nnn3c2COC(c2ccccc2)C3)CC1 (stereo not drawn)
  RP-LC retention time: 833 s

## CCN1C(=O)C2CC3(CCN(C(=O)CC(C)C)CC3)CN2C1=O (stereo not drawn)
  RP-LC retention time: 692 s

## CCOC(=O)COc1cc(-c2ccc(C)cc2)nc2ccc(NC(=O)C3CC3)cc12
  RP-LC retention time: 776 s

## CC1=C(c2ccc(C(C)C)cc2)S(=O)(=O)N=C1N1CCC(NC(=O)c2ccoc2)CC1
  RP-LC retention time: 769 s

## COCCn1cc2c3c(cccc31)CN(C(=O)Nc1cccc(Cl)c1)CC2
  RP-LC retention time: 981 s

## O=C(NCc1ccco1)c1ncoc1-c1ccccc1C(=O)N1CCCC1
  RP-LC retention time: 711 s

## CCc1ccc(Oc2nccnc2N2CCC(C(=O)N3CCN(c4ccccn4)CC3)CC2)cc1
  RP-LC retention time: 734 s

## Cc1oc(-c2[nH]ncc2C(=O)N(C)C)cc1S(=O)(=O)Nc1ccccc1F
  RP-LC retention time: 658 s

## Cc1ccc(-c2nc3ccc(C)cn3c2NC(=O)c2ccc(Cl)cc2)cc1
  RP-LC retention time: 763 s

## COc1cccc(C2Cn3nnc(-c4nc(-c5ccccc5Br)no4)c3CO2)c1 (stereo not drawn)
  RP-LC retention time: 1170 s

## CCOc1ccc(NC(=O)C2(CC)CCCCC(=O)N2)cc1 (stereo not drawn)
  RP-LC retention time: 720 s

## Cc1ccc(-c2nc(Cn3nnc(C(=O)NC4CCCC4)c3C)c(C)o2)cc1
  RP-LC retention time: 1060 s

## COc1cc(N)c(Cl)cc1C(=O)NC1CN2CCC1CC2 (stereo not drawn)
  RP-LC retention time: 615 s

## O=C(C1CCCN(c2ncnc3c2nc2n3CCCCC2)C1)N1CCC(Cc2ccccc2)CC1 (stereo not drawn)
  RP-LC retention time: 1000 s

## COc1ccc(-n2nc(SCC(=O)Nc3cc(F)ccc3F)ccc2=O)cc1
  RP-LC retention time: 756 s

## CC(C)(Oc1ccc(Cl)cc1)C(=O)NC1CCCCC1N1C(=O)CSC1=O (stereo not drawn)
  RP-LC retention time: 972 s

## CCn1cnc(S(=O)(=O)N2CCCC(C(=O)NCCc3ccccc3)C2)c1 (stereo not drawn)
  RP-LC retention time: 702 s

## CCN(CC)S(=O)(=O)c1c(C)nc2sc(C)nn12
  RP-LC retention time: 760 s

## Cc1ccc(S(=O)(=O)Nc2cc(-c3cn4cccc(C)c4n3)ccc2C)cc1C
  RP-LC retention time: 729 s

## CCOC(=O)c1nc(N(C)c2cccc(C)c2)c2ccccc2n1
  RP-LC retention time: 982 s

## CCNC(=O)C1CCN(S(=O)(=O)c2cc(-c3noc(C)n3)cs2)CC1
  RP-LC retention time: 713 s

## COC(=O)c1sc2ccccc2c1NC(=O)c1cccc(OC)c1OC
  RP-LC retention time: 1020 s

## COc1ccc(C(=O)N2CCCn3cc(-c4ccccc4)nc32)cn1
  RP-LC retention time: 532 s

## CCOC(=O)CCC(=O)NCC1CN(c2ccc(F)cc2)C(=O)O1 (stereo not drawn)
  RP-LC retention time: 666 s

## Cn1c(C(=O)NCCCN2CCC(Cc3ccccc3)CC2)cc2c(=O)n(C)c3ccccc3c21
  RP-LC retention time: 707 s

## COc1ccc(NC(=O)c2csc(-c3ccc(C)n3C)n2)c(OC)c1
  RP-LC retention time: 1200 s

## c1cncc(-c2n[nH]c(C3CCCCN3)n2)c1 (stereo not drawn)
  RP-LC retention time: 555 s

## CC(=O)N1CCC(c2nc(-c3ccc4oc(-c5ccccc5)nc4c3)no2)CC1
  RP-LC retention time: 987 s

## CC1CC(=O)N(Cc2c(F)cccc2Cl)c2ccccc2N1 (stereo not drawn)
  RP-LC retention time: 897 s

## Cc1nnc2sc(SCC(=O)NCc3ccc4c(c3)OCO4)nn2c1=O
  RP-LC retention time: 603 s

## CCOc1ccc(Cc2nc(-c3ccc4oc(C)nc4c3)no2)cc1
  RP-LC retention time: 1250 s

## O=C(CN1C(=O)CCc2cc(Br)ccc21)N1CCN(c2ccccc2)CC1
  RP-LC retention time: 913 s

## COc1cccc(N2CCN(C(=O)c3cn(-c4ccc(NC(C)=O)cn4)cn3)CC2)c1
  RP-LC retention time: 680 s

## CCOC(=O)CCC(=O)Nc1nnc(-c2cc(C)oc2C)o1
  RP-LC retention time: 683 s

## COc1ccc(S(=O)(=O)N2CCCC(C(=O)Nc3ccc(C(N)=O)cc3)C2)cc1OC (stereo not drawn)
  RP-LC retention time: 682 s

## CCCN1C(=O)COc2ccc(-c3noc(CNC(=O)Cc4ccccc4)n3)cc21
  RP-LC retention time: 849 s

## Cc1ccc(CNC(=O)C2CCCN(c3cnc4nccnc4c3)C2)o1 (stereo not drawn)
  RP-LC retention time: 772 s

## COc1ccc(-c2nc3cnccn3c2Nc2ccc(C)cc2C)cc1OC
  RP-LC retention time: 871 s

## COc1ccc(S(=O)(=O)N2CCC(c3noc(-c4ccc(C)cc4)n3)CC2)cc1
  RP-LC retention time: 1150 s

## O=C(NCc1cccc(Br)c1)c1c(O)c2cccnc2[nH]c1=O
  RP-LC retention time: 1000 s

## O=C(Nc1ccc(C(F)(F)F)cc1)NC1CCN(c2cc(N3CCOCC3)cnn2)C1 (stereo not drawn)
  RP-LC retention time: 685 s

## CCN1CCCn2cc(S(=O)(=O)Nc3cc(C)ccc3C)cc2C1=O
  RP-LC retention time: 756 s

## O=C(CC1Sc2ccc(C(F)(F)F)cc2NC1=O)Nc1cccc(Cl)c1Cl (stereo not drawn)
  RP-LC retention time: 993 s

## CCOc1cc(C(=O)N(CC)c2nc(-c3ccccc3)cs2)cc(OCC)c1OCC
  RP-LC retention time: 663 s

## COc1ccc(C(=O)Nc2cc(C(=O)O)ccc2N2CCN(c3ncccn3)CC2)cc1
  RP-LC retention time: 836 s

## COc1ccc(/C=C/c2nc(C#N)c(NCCCN(C)C)o2)cc1OC
  RP-LC retention time: 629 s

## O=C(Nc1ccc(F)cc1)N1CCN(Cc2nc3cc(-c4ccccc4)ccc3o2)CC1
  RP-LC retention time: 860 s

## C[C@@H](NC(=O)c1ccccc1F)C(=O)NCc1cscn1
  RP-LC retention time: 620 s

## O=C(Nc1ccc2c(c1)OCCO2)c1cnc(-c2ccc(F)cc2)nc1-c1ccncc1
  RP-LC retention time: 831 s

## COCc1nc(N2CCN(c3ccccc3F)CC2)ncc1C(=O)O
  RP-LC retention time: 827 s

## Cc1ccc(/C=C/S(=O)(=O)NCCn2nc(-c3cccnc3)ccc2=O)cc1
  RP-LC retention time: 638 s

## COc1ccccc1NS(=O)(=O)c1cn(C(C)C)c2ncccc12
  RP-LC retention time: 886 s

## CCCNC(=O)C(=O)NCC(c1ccc2c(c1)CCCN2C)N1CCCCC1 (stereo not drawn)
  RP-LC retention time: 598 s

## COc1ccccc1-c1noc(C2CCCN2C(=O)c2ccoc2)n1 (stereo not drawn)
  RP-LC retention time: 763 s

## CC1CCN(C(=O)C2=NN(Cc3ccc(F)cc3)c3ccccc3S2(=O)=O)CC1
  RP-LC retention time: 1000 s

## Cc1cn(C)c(CC(=O)NCCCN2CCOCC2)c1C(=O)O
  RP-LC retention time: 571 s

## CCc1ccc(C(=O)Nc2ccc3c(c2)Sc2ncccc2C(=O)N3CC)cc1
  RP-LC retention time: 936 s

## COc1ccc(Nc2c(C(=O)N3CCCCC3)cnc3nc(C)ccc23)cc1
  RP-LC retention time: 605 s

## Cc1cc(C)n(-c2nc(CC(=O)NCc3ccc(F)cc3)cs2)n1
  RP-LC retention time: 854 s

## COC(=O)c1c(C)[nH]c(C(=O)N2CCC(CC(=O)NCc3cccc(C)c3)CC2)c1C
  RP-LC retention time: 748 s

## CCOC(=O)N1CCc2nc(NC(=O)c3ccc([N+](=O)[O-])s3)sc2C1
  RP-LC retention time: 792 s

## CC(=O)c1ccc(OC(=O)c2cc3c(C)nn(-c4ccccc4)c3s2)cc1
  RP-LC retention time: 1310 s

## O=S(=O)(c1ccccc1F)N1CC(c2nc(Cc3ccccc3)no2)C1
  RP-LC retention time: 976 s

## CCSc1nnc(-c2nn(C)c3c2CN(S(=O)(=O)c2ccc(C)c(F)c2)CC3)n1CC
  RP-LC retention time: 1000 s

## CCN1C(=O)COc2ccc(-c3nc(NC(=O)c4cc(OC)c(OC)c(OC)c4)sc3C)cc21
  RP-LC retention time: 1020 s

## Cc1ccc(-c2nnc(-c3cccc(S(=O)(=O)N4CCC(C(=O)O)CC4)c3)o2)cc1
  RP-LC retention time: 860 s

## COc1ccc(/C=C/C(=O)Oc2cc(O)cc(O)c2)cc1
  RP-LC retention time: 763 s
